Values of other authors as cited in patent publication US8815261B2 (priority 2009, dated 2014).
Where two headings read alike, the source gives them in different places.

In the case of `O=S(=O)(O)c1ccccc1` [benzenesulfonic acid], the “logP calculated value of organic acid” value (PubChem value, as in Example 2 (Table 4)) is given as 0.

For `CC(=O)CCC(=O)O` [levulinic acid], the “logP calculated value of organic acid” value (PubChem value (revised on February, 2009)) is given as −0.5.
